Source: paper PMC4920673, “Nitroimidazole carboxamides as antiparasitic agents targeting Giardia lamblia, Entamoeba histolytica and Trichomonas vaginalis” (European Journal of Medicinal Chemistry, 2016)
In brackets after ≈: the same amount, converted by molar mass. Where two headings read alike, the source gives them in different places.

How the values were obtained:
[1] = test system: G. lamblia WB (MtzS); assay: ATP-bioluminescence growth/survival EC50 assay, G. lamblia WB; details: for EC50: Giardia duodenalis; for S.I (CC50/EC50): average cytotoxicity against HEK293 and HepG2 / G. lamblia WB activity
Method: (§1) Compounds were screened for antiparasitic activity using an ATP-bioluminescence based assay for cell growth and survival, [24]. […] Viable cell numbers were determined in triplicate using the CellTiter-Glo Luminescent Cell Viability Assay.

[2] = test system: G. lamblia 713M3 (MtzR); assay: ATP-bioluminescence growth/survival EC50 assay, G. lamblia 713M3; format: cell-based, Giardia lamblia; details: Giardia duodenalis
Method: as §1

[3] = test system: E. histolytica HM1:IMSS; assay: ATP-bioluminescence growth/survival EC50 assay, E. histolytica; format: cell-based, Entamoeba histolytica; details: Entamoeba histolytica
Method: as §1

[4] = test system: T. vaginalis F1623; assay: ATP-bioluminescence growth/survival EC50 assay, T. vaginalis; format: cell-based, Trichomonas vaginalis
Method: as §1

[5] = test system: C. difficile 630 (ATCC BAA-1382); assay: Broth microdilution MIC assay, C. difficile 630; format: cell-based, Clostridium difficile; details: Clostridioides difficile, ATCCBAA1382
Method: Clostridium difficile strains (630, ATCC BAA-1382 and NAP1/027, ATCC BAA-1803) were maintained as previously described. The minimum inhibition concentration (MIC) was determined according to the CLSI Methods with modifications in broth and inoculum for C. difficile, [25], [26]. Briefly, compounds and control antibiotics were serially diluted two-fold in 96-well plates (Non-binding surface, Corning). […] C. difficile bacteria from BHIS(TA) agar plates were cultured anaerobically in BHIS at 37 °C overnight. […] An antibiotic standard, a positive growth control (no compound) and a sterility control (no bacteria) were included on each 96 well plate. Plates were covered and incubated at 37 °C for 24 h. MICs for each strain were determined as the lowest concentration without visible growth. […] Median MICs are reported with a range given when the median MIC was between two tested concentrations.

[6] = test system: C. difficile NAP1/027 (ATCC BAA-1803); assay: Broth microdilution MIC assay, C. difficile NAP1/027; format: cell-based, Clostridium difficile; details: Clostridioides difficile, ATCCBAA1803; strain NAP1/027
Method: Clostridium difficile strains (630, ATCC BAA-1382 and NAP1/027, ATCC BAA-1803) were maintained as previously described. The minimum inhibition concentration (MIC) was determined according to the CLSI Methods with modifications in broth and inoculum for C. difficile, [25], [26]. Briefly, compounds and control antibiotics were serially diluted two-fold in 96-well plates (Non-binding surface, Corning). The plates were placed in a Coy anaerobic chamber (5% H2, 10% CO2, 85% N2) overnight to reduce the medium. C. difficile bacteria from BHIS(TA) agar plates were cultured anaerobically in BHIS at 37 °C overnight. […]. Compound concentration ranged from 64 to 0.03 μg/mL. An antibiotic standard, a positive growth control (no compound) and a sterility control (no bacteria) were included on each 96 well plate. Plates were covered and incubated at 37 °C for 24 h. MICs for each strain were determined as the lowest concentration without visible growth. Variance between replicates was typically within one 2-fold dilution. Median MICs are reported with a range given when the median MIC was between two tested concentrations.

[7] = Resazurin cytotoxicity assay, HEK293; format: cell-based, Human; details: human, 24 h, highest concentration 100 μM, n = 3, read-out: CC50 HEK 293
Method: (§2) Human HEK293 and HepG2 cells were seeded at 3000 and 5000 cells per well in 384-well plates, respectively. Cells were cultured in Dulbecco's modified Eagle's medium with 10% FBS for 24 h at 37 °C, 5% CO2. A dilution series of compounds was added, with the highest concentration of 100 μM. […] After 24 h incubation with the compounds, 5 μM resazurin was added into each well and incubated at 37 °C for 2 h. As a negative control, 1% Triton X-100 was added into the culture media to lyse all of the cells. The fluorescence intensity was read using Polarstar Omega with excitation/emission 560/590 nm. Data were analysed with GraphPad Prism 6 software (La Jolla, California USA) to calculate CC50 values.

[8] = Resazurin cytotoxicity assay, HepG2; format: cell-based, Human; details: human, 24 h, highest concentration 100 μM, n = 3, read-out: CC50 Hep G2
Method: as §2

[9] = read-out: EC50 G. lamblia WB, MtzS strain WB, minimum n = 3
[10] = read-out: pEC50 ± SE G. lamblia WB, MtzS strain WB (converted)
[11] = read-out: EC50 G. lamblia 713M3, MtzR strain 713M3, minimum n = 3
[12] = read-out: pEC50 ± SE G. lamblia 713M3, MtzR strain 713M3 (converted)
[13] = read-out: EC50 E. histolytica HM1:IMSS
[14] = read-out: pEC50 ± SE E. histolytica HM1:IMSS (converted)
[15] = Trichomonas vaginalis, read-out: EC50 T. vaginalis F1623, MtzS, minimum n = 3
[16] = Trichomonas vaginalis, read-out: pEC50 ± SE T. vaginalis F1623, MtzS (converted)
[17] = strain 630, MtzS, median of n = 4, read-out: MIC C. difficile 630

| Compound | EC50 [1, 9] [µM] | EC50 [1, 10] [µM] | S.I (CC50/EC50) [1] | EC50 [2, 11] [µM] | EC50 [2, 12] [µM] | EC50 [3, 13] [µM] | EC50 [3, 14] [µM] | EC50 [4, 15] [µM] | EC50 [4, 16] [µM] | MIC [5, 17] [µg/mL] | MIC [6] [µg/mL] | CC50 at 24 h ([7]; HEK293 cells) [µM] | CC50 at 24 h ([8]; HepG2 cells) [µM] | EC50 ([4]; read-out: EC50 T. vaginalis F1623, MtzS, minimum n = 3) [µM] | MIC ([5]; 630 and NAP1/027 strains together or strain not given, read-out: MIC C. difficile) [µg/mL] | CC50 at 24 h [7] [µM] | CC50 at 24 h [8] [µM] |
| --- | --- | --- | --- | --- | --- | --- | --- | --- | --- | --- | --- | --- | --- | --- | --- | --- | --- |
| CN(C)C(=O)c1ncc([N+](=O)[O-])[nH]1 [Compound 12g, N,N-dimethyl-5-nitro-1H-imidazole-2-carboxamide] | 8.3 | 8.32 | >12 | > 20 | > 20 | 2.7 | 2.69 | 2.4 | 2.34 | 2 (≈ 10.9 µM) | 2 (≈ 10.9 µM) | > 100 | > 100 |  |  |  |  |
| O=C(c1ncc([N+](=O)[O-])[nH]1)N1CCCC1 [Compound 12i, (5-nitro-1H-imidazol-2-yl)(pyrrolidin-1-yl)methanone] | 3.4 | 3.39 | >29 | 13 | 13.2 | 4.3 | 4.27 | 1.2 to 2.3 | 1.7 | 2 (≈ 9.52 µM) | 2 (≈ 9.52 µM) | > 100 | > 100 | 1.7 |  |  |  |
| O=C(NC1CC1)c1ncc([N+](=O)[O-])[nH]1 [Compound 12j, N-cyclopropyl-5-nitro-1H-imidazole-2-carboxamide] | 5 | 5.01 | >20 | > 20 | > 20 | 5.3 | 5.25 | 4.4 | 4.37 | 1 (≈ 5.1 µM) | 1 (≈ 5.1 µM) | > 100 | > 100 |  | 1 (≈ 5.1 µM) |  |  |
| NC(=O)c1ncc([N+](=O)[O-])[nH]1 [Compound 12l, 5-nitro-1H-imidazole-2-carboxamide] | > 50 | > 50.1 |  | > 20 | > 20 | 13 | 13.2 | > 20 | > 20 | 1 (≈ 6.41 µM) | 1 to 2 (≈ 6.41 to 12.8 µM) |  |  |  |  | > 100 | > 100 |
